The series deals with pain (VAS scale) in patients. The series is described as follows: Punctual stimulation on both ears with simultaneous intravenous infusion of D-phenylalanine solution; pain reduction in patient case reports. The class given is in vivo, human. The source says:
Very good relief of existing pain can be achieved by means of punctual stimulation, in which electrical current is supplied by way of needle electrodes stuck into the skin, whereby these needle electrodes are placed, in particular, at specifically sensitive points of an outer ear, in the case of the predominant number of patients treated with such stimulation.
On each of three consecutive days, punctual stimulation on both ears, with simultaneous intravenous infusion of a substance that inhibits the enzymatic decomposition of endogenous opioid neuropeptides, was carried out. Afterwards, punctual stimulation was carried out without infusion for the four subsequent days, by means of a small device worn by the patient, to supply power to needle electrodes that are stuck into the skin on one ear. This sequence was repeated several times, in coordination with the patient's need for pain reduction. In the case of punctual stimulations carried out with simultaneous infusion, electrical current was supplied to needle electrodes that were stuck into sensitive points of both ears. A sterile aqueous solution containing 20 g/L D-phenylalanine was administered as the infusion, whereby a total amount of D-phenylalanine of 200 to 300 mg/kilogram of body weight was administered during every treatment procedure. On the first days of the three-day sequences, in each instance, the infusion was started at least 10 min before the punctual stimulation. The flow velocity of the infusion was selected in accordance with an infusion period of 2.5 to 5 h.
Admission to clinic. Punctual stimulation carried out without infusion, by means of power supply to needle electrodes that are stuck into one ear, over a period of four days. Pain reduction achieved in this manner. Subsequently, punctual stimulation by means of power supply to needle electrodes that are stuck in both ears, and simultaneous intravenous infusion of an aqueous solution containing 15 g/L D-phenylalanine, in an amount of 250 mg/kg of body weight. An anti-emetic was also added to the solution. Duration of infusion about 3 h. During the course of this treatment, pain reduction all the way to freedom from pain (VAS-0). After 8 days, discharge from the clinic—free of symptoms, no vomiting, no nausea, no medication. At discharge, application of a device for punctual stimulation on one ear, without infusion, as mentioned above, for four days. Freedom from symptoms remains maintained during this stimulation period. On the following days, slight pain in the abdominal region, in individual instances. Three days after completion of the prior stimulation, again application of a device for a stimulation lasting four days—immediately clear relief. After this stimulation, again increase in pain, but tolerable without medication. After another three days, again application of such a device—free of symptoms. After removal of the device, again slight increase in pain, whereby the number of pain attacks and their intensity has decreased in comparison with previously. After several days, again a device applied for stimulation on one ear, lasting for four days—free of symptoms. After removal of the device, slow increase in pain to VAS-3-4. Ten days after removal of the device, again punctual stimulation on two ears, with intravenous infusion, as explained above. Pain reduction to VAS-0. […] Subsequently slow increase in pain up to maximum VAS-4. Two weeks after punctual stimulation on both ears, again application of a device for four days of stimulation on one ear without infusion—free of symptoms during stimulation. Another two weeks later, again application of such a device—free of symptoms during stimulation. Afterwards, more severe pain again in paraumbilical region, in individual instances. Again, application of a device as mentioned—free from symptoms during the stimulation. Later, sudden increase in pain. Therefore one week later, again punctual stimulation on both ears, with infusion. VAS-0. […]

As for `N[C@H](Cc1ccccc1)C(=O)O` [D-phenylalanine], the “dulling of sensory system” value (after first treatment, 20 g/L, 300 mg/kg i.v.) is “without dulling of the sensory system”. The “duration of complete freedom from pain after treatment” value (after second treatment with infusion) turned out to be 48 h. Further, the “maximum pain (VAS) on slow increase after treatment” value (after the 48 h following second treatment with infusion) is recorded as at most 4 VAS. The “pain (VAS) on increase after the pain-free period” value (after three pain-free days) was determined as 4 VAS. The pain after treatment result reads like this: (ankle pain VAS-10, back pain, first treatment: 15 g/L, 250 mg/kg i.v., 3 h, stimulation on both ears) “complete freedom from pain”; (second treatment on both ears with infusion) “Complete freedom from pain”; (second treatment with infusion, from VAS-6) “complete freedom from pain achieved”. Further, the “pain reduction during each treatment procedure” value (carcinoma with generalized metastases, 20 g/L D-phenylalanine i.v., 200 to 300 mg/kg, infusion 2.5 to 5 h, with punctual stimulation on both ears, three consecutive days) is “pain reduction, which went all the way to freedom from pain”. In addition, the “pain (VAS) during treatment” value (lumbar ischialgia, from VAS 9.5, 20 g/L, 300 mg/kg i.v., 3 h, stimulation on both ears) turned out to be 0 VAS.
